Source: PubChem BioAssay (NCI)
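Compound exposure: 48 hours, 5 concentrations, 96-well plates. At the TGI there is no net growth.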

Columns and labels:
Test in all cases: DTP human tumour cell line panel, 48 h
[1] = tested on: HCC-2998 colon
[2] = tested on: A549 NSCLC
[3] = tested on: SF-268 CNS
[4] = tested on: IGROV1 ovarian
[5] = tested on: HOP-62 NSCLC
[6] = tested on: MDA-MB-435
[7] = tested on: CAKI-1 renal
[8] = tested on: SK-MEL-5 melanoma
[9] = tested on: OVCAR-8 ovarian
[10] = tested on: NCI-H522 lung
[11] = tested on: OVCAR-3 ovarian
[12] = tested on: SF-295 CNS
[13] = tested on: PC-3 prostate
[14] = tested on: OVCAR-4 ovarian
[15] = tested on: SN12C renal
[16] = tested on: NCI/ADR-RES ovarian
[17] = tested on: MDA-N
[18] = tested on: UACC-62 melanoma
[19] = tested on: LOX IMVI melanoma
[20] = tested on: MCF7 breast
[21] = tested on: UACC-257 melanoma
[22] = tested on: U251 CNS
[23] = tested on: RPMI-8226 leukemia
[24] = tested on: SR leukemia
[25] = tested on: HOP-92 NSCLC
[26] = tested on: HT29 colon
[27] = tested on: KM12 colon
[28] = tested on: SF-539 CNS
[29] = tested on: SNB-75 CNS
[30] = tested on: OVCAR-5 ovarian
[31] = tested on: SK-OV-3 ovarian
[32] = tested on: HCT-116 colon
[33] = tested on: RXF 393 renal
[34] = tested on: DU-145 prostate
[35] = tested on: TK-10 renal
[36] = tested on: SK-MEL-2 melanoma
[37] = tested on: T-47D breast
[38] = tested on: K-562 leukemia
[39] = tested on: MALME-3M melanoma
[40] = tested on: NCI-H226 lung
[41] = tested on: HS 578T breast
[42] = tested on: NCI-H460 lung
[43] = tested on: SK-MEL-28 melanoma
[44] = tested on: SNB-19 CNS
[45] = tested on: EKVX NSCLC
[46] = tested on: M14 melanoma
[47] = tested on: SW-620 colon
[48] = tested on: NCI-H23 lung
[49] = tested on: 786-0 renal
[50] = tested on: COLO 205 colon
[51] = tested on: ACHN renal
[52] = tested on: HCT-15 colon
[53] = tested on: BT-549 breast
[54] = tested on: UO-31 renal
[55] = tested on: MDA-MB-231 breast
[56] = tested on: HL-60(TB) leukemia
[57] = tested on: MOLT-4 leukemia
[58] = tested on: CCRF-CEM leukemia
[59] = tested on: A498 renal

CC(C)(O)/C=C\P(C)(=O)c1ccccc1 (stereo not given)
TGI [1]: > 100 µM
TGI [2]: > 100 µM
TGI [3]: > 100 µM
TGI [4]: > 100 µM
TGI [5]: > 100 µM
TGI [6]: > 100 µM
TGI [7]: > 100 µM
TGI [8]: > 100 µM
TGI [9]: > 100 µM
TGI [10]: > 100 µM
TGI [11]: > 100 µM
TGI [12]: > 100 µM
TGI [13]: > 100 µM
TGI [14]: > 100 µM
TGI [15]: > 100 µM
TGI [16]: > 100 µM
TGI [17]: > 100 µM
TGI [18]: > 100 µM
TGI [19]: > 100 µM
TGI [20]: > 100 µM
TGI [21]: > 100 µM
TGI [22]: > 100 µM
TGI [23]: > 100 µM
TGI [24]: > 100 µM
TGI [25]: > 100 µM
TGI [26]: > 100 µM
TGI [27]: > 100 µM
TGI [28]: > 100 µM
TGI [29]: > 100 µM
TGI [30]: > 100 µM
TGI [31]: > 100 µM
TGI [32]: > 100 µM
TGI [33]: > 100 µM
TGI [34]: > 100 µM
TGI [35]: > 100 µM
TGI [36]: > 100 µM
TGI [37]: > 100 µM
TGI [38]: > 100 µM
TGI [39]: > 100 µM
TGI [40]: > 100 µM
TGI [41]: > 100 µM
TGI [42]: > 100 µM
TGI [43]: > 100 µM
TGI [44]: > 100 µM
TGI [45]: > 100 µM
TGI [46]: > 100 µM
TGI [47]: > 100 µM
TGI [48]: > 100 µM
TGI [49]: > 100 µM
TGI [50]: > 100 µM
TGI [51]: > 100 µM
TGI [52]: > 100 µM

CN(C)CCn1c(=O)oc2cc(C(=O)CN3CCOCC3)ccc21
TGI [53]: > 100 µM
TGI [3]: > 100 µM
TGI [4]: > 100 µM
TGI [5]: > 100 µM
TGI [6]: > 100 µM
TGI [7]: > 100 µM
TGI [8]: > 100 µM
TGI [9]: > 100 µM
TGI [11]: > 100 µM
TGI [12]: > 100 µM
TGI [54]: > 100 µM
TGI [13]: > 100 µM
TGI [15]: > 100 µM
TGI [16]: > 100 µM
TGI [17]: > 100 µM
TGI [18]: > 100 µM
TGI [19]: > 100 µM
TGI [55]: > 100 µM
TGI [20]: > 100 µM
TGI [56]: > 100 µM
TGI [21]: > 100 µM
TGI [22]: > 100 µM
TGI [23]: > 100 µM
TGI [24]: > 100 µM
TGI [26]: > 100 µM
TGI [27]: > 100 µM
TGI [28]: > 100 µM
TGI [29]: > 100 µM
TGI [30]: > 100 µM
TGI [31]: > 100 µM
TGI [32]: > 100 µM
TGI [33]: > 100 µM
TGI [57]: > 100 µM
TGI [34]: > 100 µM
TGI [35]: > 100 µM
TGI [36]: > 100 µM
TGI [38]: > 100 µM
TGI [58]: > 100 µM
TGI [39]: > 100 µM
TGI [40]: > 100 µM
TGI [41]: > 100 µM
TGI [42]: > 100 µM
TGI [43]: > 100 µM
TGI [44]: > 100 µM
TGI [45]: > 100 µM
TGI [46]: > 100 µM
TGI [47]: > 100 µM
TGI [48]: > 100 µM
TGI [49]: > 100 µM
TGI [50]: > 100 µM
TGI [51]: > 100 µM
TGI [52]: > 100 µM

OC(Cc1ccccc1)(Cc1ccccc1)c1ccccc1
TGI [53]: 36.3 µM
TGI [2]: 46.3 µM
TGI [3]: 29.8 µM
TGI [4]: 33.7 µM
TGI [5]: 36.1 µM
TGI [6]: 33.4 µM
TGI [7]: 47.7 µM
TGI [8]: 32.5 µM
TGI [9]: 39.6 µM
TGI [10]: 32.3 µM
TGI [11]: 32.8 µM
TGI [12]: 34.9 µM
TGI [54]: 32.4 µM
TGI [13]: 34.4 µM
TGI [14]: 32.4 µM
TGI [15]: 32 µM
TGI [16]: 71.6 µM
TGI [17]: 29.2 µM
TGI [18]: 31.3 µM
TGI [19]: 37.1 µM
TGI [55]: 33.8 µM
TGI [56]: 52.8 µM
TGI [21]: 36.7 µM
TGI [22]: 32.8 µM
TGI [23]: > 100 µM
TGI [24]: 80.8 µM
TGI [25]: 32.2 µM
TGI [26]: 34.9 µM
TGI [27]: 33.3 µM
TGI [59]: 34.1 µM
TGI [30]: 38 µM
TGI [32]: 35.8 µM
TGI [33]: 29.3 µM
TGI [57]: > 100 µM
TGI [34]: 32.3 µM
TGI [35]: 42.6 µM
TGI [36]: 29.6 µM
TGI [37]: > 100 µM
TGI [38]: > 100 µM
TGI [58]: > 100 µM
TGI [39]: 27.1 µM
TGI [40]: 34.2 µM
TGI [42]: 44.4 µM
TGI [43]: 47.3 µM
TGI [44]: 67.9 µM
TGI [45]: 38 µM
TGI [46]: 33.3 µM
TGI [47]: 52.2 µM
TGI [48]: 38.4 µM
TGI [49]: 29.6 µM
TGI [51]: 33.5 µM
TGI [52]: 50.4 µM

CC(C)Oc1c(C2(c3ccccc3O)SCCCS2)c(=O)c1=O
TGI [53]: > 100 µM
TGI [2]: > 100 µM
TGI [3]: > 100 µM
TGI [4]: > 100 µM
TGI [5]: > 100 µM
TGI [6]: > 100 µM
TGI [7]: > 100 µM
TGI [8]: > 100 µM
TGI [9]: > 100 µM
TGI [10]: 58.9 µM
TGI [11]: > 100 µM
TGI [12]: > 100 µM
TGI [54]: > 100 µM
TGI [13]: > 100 µM
TGI [14]: > 100 µM
TGI [15]: > 100 µM
TGI [16]: > 100 µM
TGI [17]: > 100 µM
TGI [18]: > 100 µM
TGI [19]: > 100 µM
TGI [55]: > 100 µM
TGI [20]: > 100 µM
TGI [56]: > 100 µM
TGI [21]: > 100 µM
TGI [22]: > 100 µM
TGI [25]: > 100 µM
TGI [26]: > 100 µM
TGI [27]: > 100 µM
TGI [28]: > 100 µM
TGI [59]: > 100 µM
TGI [29]: > 100 µM
TGI [30]: > 100 µM
TGI [31]: > 100 µM
TGI [32]: > 100 µM
TGI [33]: > 100 µM
TGI [57]: > 100 µM
TGI [34]: > 100 µM
TGI [35]: > 100 µM
TGI [36]: > 100 µM
TGI [37]: > 100 µM
TGI [58]: 61.6 µM
TGI [40]: > 100 µM
TGI [41]: > 100 µM
TGI [42]: > 100 µM
TGI [43]: > 100 µM
TGI [44]: > 100 µM
TGI [45]: > 100 µM
TGI [46]: > 100 µM
TGI [47]: > 100 µM
TGI [48]: > 100 µM
TGI [49]: > 100 µM
TGI [50]: > 100 µM
TGI [51]: > 100 µM
TGI [52]: > 100 µM
